US5292737A, “N,N'-bis(sulfonamido)-2-amino-4-iminonaphthalen-1-ones and N,N'-bis(amido)-2-amino-4-iminonaphthalen-1-ones” (Sphinx Pharmaceuticals Corporation, priority 1992, dated 1994)

Legend:
PKC isoenzyme α = biological target: T1, PKC isoenzyme α (Homo sapiens, UniProt P17252); assay: Protein kinase C inhibition assay, PKC isoenzyme α; type: biochemical; settings: read-out: IC50 PKC α
T1 construct: made in house; host or cells: baculovirus-insect cell expression system
Procedure: (§1) A protein kinase C (PKC) assay is designed to duplicate the in vivo conditions required for protein kinase C function. Therefore, pH, salt and cofactor concentrations are similar to physiologic levels. Either lysine rich histone H1 (H1) or Myelin basic protein (Mbp) are used in the assay as the phosphorylation acceptor-protein because they are readily available and serve as good substrates for protein kinase C. Enzyme was prepared from baculovirus-insect cell expression systems.
(§2) In the screening assay, phosphatidylserine (PS) and DAG were co-sonicated to form unilamellar and multilamellar vesicles. The concentration of lipids in the assay were suboptimal to maximize the detection potential of the assay for inhibitors or activators. Potential effector compounds were added to the assay in dimethylsulfoxide at four concentrations to give final inhibitor concentrations of 1, 10, 50, and 150 μM, respectively.
(§3) The assay was started with the addition of enzyme and stopped after 10 min by the addition of 25% trichloroacetic acid (TCA) and 1.0 mg/ml bovine serum albumin (BSA). The radioactive histone product was retained and washed on glass fiber filters that allow the unreacted P-ATP to pass through. The amount of phosphorylation was determined by measuring radioactivity with a scintillation counter. Controls were included in every assay to measure background activity in the absence of enzyme, activity in the absence of lipids, and the maximum enzyme activity with saturating levels of the activator lipids.
(§4) Results of the protein kinase C assay are shown in Table 4 in columns labeled α, βII, γ, δ, ε, and .zeta. which represent various PKC isoenzymes. Results are show as IC50, which is the concentration of test compound needed to inhibit 50% of the protein kinase C activity in controls.

PKC isoenzyme βII = biological target: T2, PKC isoenzyme βII (Homo sapiens, UniProt P05771); assay: Protein kinase C inhibition assay, PKC isoenzyme βII; type: biochemical; settings: read-out: IC50 PKC βII
T2 construct: made in house; host or cells: baculovirus-insect cell expression system
Procedure: as §1, §2, §3, §4

PKC isoenzyme γ = biological target: T3, PKC isoenzyme γ (Homo sapiens, UniProt P05129); assay: Protein kinase C inhibition assay, PKC isoenzyme γ; type: biochemical; settings: read-out: IC50 PKC γ
T3 construct: made in house; host or cells: baculovirus-insect cell expression system
Procedure: as §1, §2, §3, §4

PKC isoenzyme δ = biological target: T4, PKC isoenzyme δ (Homo sapiens, UniProt Q05655); assay: Protein kinase C inhibition assay, PKC isoenzyme δ; type: biochemical; settings: read-out: IC50 PKC δ
T4 construct: made in house; host or cells: baculovirus-insect cell expression system
Procedure: as §1, §2, §3, §4

PKC isoenzyme ε = biological target: T5, PKC isoenzyme ε (Homo sapiens, UniProt Q02156); assay: Protein kinase C inhibition assay, PKC isoenzyme ε; type: biochemical; settings: read-out: IC50 PKC ε
T5 construct: made in house; host or cells: baculovirus-insect cell expression system
T5 sequence (Q02156 1-737): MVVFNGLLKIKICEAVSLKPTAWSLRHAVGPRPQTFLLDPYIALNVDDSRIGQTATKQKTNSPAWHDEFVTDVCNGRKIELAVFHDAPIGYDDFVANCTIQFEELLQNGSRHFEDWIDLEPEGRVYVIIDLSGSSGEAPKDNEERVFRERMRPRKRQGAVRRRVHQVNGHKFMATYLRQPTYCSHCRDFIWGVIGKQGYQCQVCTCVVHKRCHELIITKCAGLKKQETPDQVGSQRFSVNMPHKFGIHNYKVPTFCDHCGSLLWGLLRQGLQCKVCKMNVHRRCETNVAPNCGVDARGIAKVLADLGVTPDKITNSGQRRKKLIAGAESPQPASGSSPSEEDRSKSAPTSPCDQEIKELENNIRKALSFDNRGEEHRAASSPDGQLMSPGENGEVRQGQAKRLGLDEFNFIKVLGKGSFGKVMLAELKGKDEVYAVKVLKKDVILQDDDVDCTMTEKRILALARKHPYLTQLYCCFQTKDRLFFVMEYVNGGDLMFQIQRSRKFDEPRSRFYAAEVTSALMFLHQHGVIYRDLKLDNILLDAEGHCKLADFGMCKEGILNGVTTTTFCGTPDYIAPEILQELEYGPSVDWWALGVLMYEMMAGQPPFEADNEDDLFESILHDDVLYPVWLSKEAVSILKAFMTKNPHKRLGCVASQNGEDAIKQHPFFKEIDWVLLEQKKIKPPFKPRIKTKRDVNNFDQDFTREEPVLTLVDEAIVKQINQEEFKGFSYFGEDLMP
Procedure: as §1, §2, §3, §4

PKC isoenzyme ζ = biological target: T6, PKC isoenzyme ζ (Homo sapiens, UniProt Q05513); assay: Protein kinase C inhibition assay, PKC isoenzyme ζ; type: biochemical; settings: read-out: IC50 PKC .zeta.
T6 construct: made in house; host or cells: baculovirus-insect cell expression system
T6 sequence (Q05513 1-592): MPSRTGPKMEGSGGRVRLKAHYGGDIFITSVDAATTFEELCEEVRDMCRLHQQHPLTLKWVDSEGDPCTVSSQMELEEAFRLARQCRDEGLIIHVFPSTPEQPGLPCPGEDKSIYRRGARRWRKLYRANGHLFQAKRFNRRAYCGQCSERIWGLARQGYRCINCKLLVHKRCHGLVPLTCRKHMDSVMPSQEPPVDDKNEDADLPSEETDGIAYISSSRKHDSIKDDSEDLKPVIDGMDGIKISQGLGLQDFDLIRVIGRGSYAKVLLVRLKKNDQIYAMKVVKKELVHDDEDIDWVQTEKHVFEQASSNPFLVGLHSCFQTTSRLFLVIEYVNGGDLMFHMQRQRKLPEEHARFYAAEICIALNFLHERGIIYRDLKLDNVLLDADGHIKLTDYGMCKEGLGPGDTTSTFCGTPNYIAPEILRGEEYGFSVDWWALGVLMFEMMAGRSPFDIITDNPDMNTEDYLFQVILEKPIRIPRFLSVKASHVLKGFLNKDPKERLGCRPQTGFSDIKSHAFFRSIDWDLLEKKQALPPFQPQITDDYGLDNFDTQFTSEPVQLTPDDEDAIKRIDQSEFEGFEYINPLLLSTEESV
Procedure: as §1, §2, §3, §4

[1] = biological target: cAMP dependent protein kinase (PKA); assay: cAMP Dependent Protein Kinase (PKA) Assay; type: biochemical; settings: for IC50: catalytic subunit of PKA
Procedure: Compounds found to be inhibitors of protein kinase C were tested for inhibitory activity against cAMP dependent protein kinase (PKA). This enzyme, like protein kinase C, plays an important role in cell-cell communication and is activated by a second messenger, cAMP. Secondary screening against PKA is useful for ascertaining the selectivity of the compounds of the invention.
The catalytic subunit of PKA (Sigma Chemical Company, St. Louis, Mo.) was mixed with buffer before addition of the inhibitor in dimethylsulfoxide (DMSO). Potential inhibitor compounds were added to the assay in dimethylsulfoxide at two concentrations to give final inhibitor concentrations of 30 and 150 μM, respectively. The assay was started by the addition of ^32 P-ATP and the reaction was allowed to proceed for 10 min before stopping with 25% trichloroacetic acid (TCA) and 1.0 mg/ml bovine serum albumin (BSA). Phosphorylated protein was then isolated by filtration and the radioactivity was counted by a beta scintillation counter.

[2] = tested on: normal human epidermal keratinocyte (NHEK) cells; assay: Human Keratinocyte Inhibition (3H TdR Assay); type: cell-based; settings: Homo sapiens, 24 h incubation, 3H-thymidine
Procedure: Proliferating normal human epidermal keratinocyte (NHEK) cells were obtained in the second passage and grown in keratinocyte growth medium, KGM (Clonetics, Inc.) at 37° C., 5% CO2. The cells were trypsinized (0.25%), centrifuged, counted with a hemocytometer, and seeded at a concentration of 5000 cells in 100 μl well in a 96-well microtiter plate.
After the cells were allowed to attach to the microtiter plate overnight, test agents were titrated to determine the dose response. This was done by adding each test agent dilution in quadruplicate to the plate at 2× final concentration in 100 μl to bring the total volume of each well to 200 μl. Culture media with no test agent added was used as a normal control. Duplicate sets of plates were established.
After twenty-four hours of incubation with test compounds 37° C. and 5% CO2, […] of 0.01 mCi/ml tritiated thymidine (New England Nuclear) was added to each well and allowed to incubate for another 4 hours under the same conditions.
Supernatant was aspirated and discarded and […] of 0.05% trypsin (Gibco) was added to each cell. Cells were checked microscopically to determine detachment from surfaces and then harvested onto glass filters. The filters were then placed in vials to which scintillant was added and counted for one minute each in a scintillation counter.
Determine mean cpm of wells containing test agent (n=4) or KGM control (n=16). Calculate % of control by the formula: [formula]
The IC50, or connection necessary to inhibit 50% of control, of each test agent was determined by plotting % control vs log concentration for each dilution and then linear forecasting the 50% control value onto the X axis on a Quatro Pro computer program. Only regression values with a correlation coefficient greater than 0.9 were considered acceptable.

T2 sequence (P05771 1-673 isoform P05771-2): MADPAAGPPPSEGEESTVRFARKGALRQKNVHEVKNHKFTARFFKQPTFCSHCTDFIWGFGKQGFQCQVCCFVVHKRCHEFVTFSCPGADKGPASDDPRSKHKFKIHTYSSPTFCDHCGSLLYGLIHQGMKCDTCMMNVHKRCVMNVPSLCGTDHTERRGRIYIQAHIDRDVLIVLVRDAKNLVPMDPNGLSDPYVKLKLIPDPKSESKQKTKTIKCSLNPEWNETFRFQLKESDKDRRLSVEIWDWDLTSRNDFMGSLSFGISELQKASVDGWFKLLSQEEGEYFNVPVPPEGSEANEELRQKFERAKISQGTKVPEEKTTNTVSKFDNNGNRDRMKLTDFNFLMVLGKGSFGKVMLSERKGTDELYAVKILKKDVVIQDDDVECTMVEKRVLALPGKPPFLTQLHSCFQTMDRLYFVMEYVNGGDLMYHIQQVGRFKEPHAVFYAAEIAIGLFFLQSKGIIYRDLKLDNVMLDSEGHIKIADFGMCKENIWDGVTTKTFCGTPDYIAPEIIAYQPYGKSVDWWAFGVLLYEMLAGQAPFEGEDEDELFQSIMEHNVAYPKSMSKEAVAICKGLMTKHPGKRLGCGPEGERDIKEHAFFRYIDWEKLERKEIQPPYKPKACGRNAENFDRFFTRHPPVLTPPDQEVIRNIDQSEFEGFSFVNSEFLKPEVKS
T4 sequence (Q05655 whole entry): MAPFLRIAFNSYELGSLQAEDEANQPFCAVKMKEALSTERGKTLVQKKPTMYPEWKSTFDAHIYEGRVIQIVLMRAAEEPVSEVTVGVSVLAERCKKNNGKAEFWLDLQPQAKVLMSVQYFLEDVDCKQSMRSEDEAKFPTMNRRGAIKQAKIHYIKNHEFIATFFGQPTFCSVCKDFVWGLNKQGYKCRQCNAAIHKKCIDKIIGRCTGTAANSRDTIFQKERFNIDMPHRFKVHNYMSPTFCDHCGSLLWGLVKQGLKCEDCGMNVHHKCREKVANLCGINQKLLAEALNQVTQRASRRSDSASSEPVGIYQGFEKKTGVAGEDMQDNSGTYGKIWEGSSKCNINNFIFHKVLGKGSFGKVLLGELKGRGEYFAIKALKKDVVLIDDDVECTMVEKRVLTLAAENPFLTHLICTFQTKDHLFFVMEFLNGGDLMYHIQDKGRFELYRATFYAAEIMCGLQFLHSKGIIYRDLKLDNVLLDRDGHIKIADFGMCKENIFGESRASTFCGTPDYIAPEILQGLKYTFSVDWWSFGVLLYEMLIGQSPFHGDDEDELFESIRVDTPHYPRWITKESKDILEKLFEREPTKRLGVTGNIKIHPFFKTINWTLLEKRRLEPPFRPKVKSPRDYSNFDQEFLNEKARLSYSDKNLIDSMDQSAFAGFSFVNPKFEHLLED

| IC50 (PKC isoenzyme α) [µM] | IC50 (PKC isoenzyme βII) [µM] | IC50 (PKC isoenzyme γ) [µM] | IC50 (PKC isoenzyme δ) [µM] | IC50 (PKC isoenzyme ε) [µM] | IC50 (PKC isoenzyme ζ) [µM] | IC50 [1] [µM] | effect on PKA activity ([1]; result in words) | Compound | IC50 [2] [µM] |
| --- | --- | --- | --- | --- | --- | --- | --- | --- | --- |
| 113 | > 150 | 24 | > 150 | > 150 | 37 | 111 | – | O=C1C(Nc2ccc(S(=O)(=O)Nc3ncccn3)cc2)=CC(=Nc2ccc(S(=O)(=O)Nc3ncccn3)cc2)c2ccccc21 [Compound 3k] | 1.8 |
| 117 | 138 | 118 | 139 | > 150 | 26 | > 150 | did not effect on PKA activity | CCCCCCCCCCCCCCCCNS(=O)(=O)c1ccc(N=C2C=C(Nc3ccc(S(=O)(=O)NCCCCCCCCCCCCCCCC)cc3)C(=O)c3ccccc32)cc1 [Compound 3o] | 3.8 |
